These results are taken from PMC11864037 (RSC Advances, 2025).

Like-named read-outs stand apart in the source and are kept apart here.

One data set addresses SARS-CoV-2 M^pro (Severe acute respiratory syndrome coronavirus 2, UniProt P0DTD1). Put plainly: biochemical. The following applies: for inhibition against M^pro: concentration not given.
Data set [1] can be described thus: MTT cytotoxic assay in Vero-E6 cells. The class given is cell-based. The following applies: African green monkey.
In another data set the test system is M^pro. The following applies: repurposed drug; cited from earlier work.
For the next data set, the system named is SARS-CoV-2. The following applies: cited from earlier work.

As a reminder, the IC50 is the concentration that gives 50% inhibition. In the case of `O=C(O)CC[C@H](NC(=O)C1=C(C(F)(F)F)NC(=S)NC1c1ccc(C(F)(F)F)cc1)C(=O)O` (stereo partly drawn) [8a], the concentration for half-maximal inhibition (IC50) at SARS-CoV-2 M^pro amounted to 23.2 µM.

In the case of `O=C(O)C[C@H](NC(=O)C1=C(C(F)(F)F)NC(=S)NC1c1ccc(C(F)(F)F)cc1)C(=O)O` (stereo partly drawn) [8b], the IC50 against SARS-CoV-2 M^pro stood at 44.7 ± 1.36 µM.

At SARS-CoV-2 M^pro, `O=C(Nc1ccc(S(=O)(=O)O)cc1)C1=C(C(F)(F)F)NC(=S)NC1c1ccc(C(F)(F)F)cc1` (stereo not drawn) [8c] came in with an IC50 of 28.2 µM.

Regarding `O=C(N[C@@H](Cc1c[nH]cn1)C(=O)O)C1=C(C(F)(F)F)NC(=S)NC1c1ccc(C(F)(F)F)cc1` (stereo partly drawn) [8d], on SARS-CoV-2 M^pro, the IC50 turned out to be 30.7 µM.

At SARS-CoV-2 M^pro, `O=C(N[C@@H](Cc1ccc(O)cc1)C(=O)O)C1=C(C(F)(F)F)NC(=S)NC1c1ccc(C(F)(F)F)cc1` (stereo partly drawn) [8e] displayed a concentration for half-maximal inhibition (IC50) of 25.3 µM.

`O=C(O)CC[C@H](NC(=O)C1=C(C(F)(F)F)NC(=S)NC1c1ccc([N+](=O)[O-])cc1)C(=O)O` (stereo partly drawn) [8f] showed an IC50 against SARS-CoV-2 M^pro of 36.8 µM.

For the molecule `COC(=O)c1ccc(C2NC(=S)NC(C(F)(F)F)=C2C(=O)N[C@@H](Cc2c[nH]cn2)C(=O)O)cc1` (stereo partly drawn) [8h], half-maximal inhibition on SARS-CoV-2 M^pro (IC50) required 34.9 µM.

With `O=C(O)CC[C@H](NC(=O)C1=C(C(F)(F)F)NC(SC(=O)CN2CCn3c(nnc3C(F)(F)F)C2)=NC1c1ccc(C(F)(F)F)cc1)C(=O)O` (stereo partly drawn) [12a, (6-(Trifluoromethyl)-2-((2-(3-(trifluoromethyl)-5,6-dihydro-[1,2,4]triazolo[4,3-a]-pyrazin-7(8H)-yl)acetyl)thio)-4-(4 (trifluoromethyl)phenyl)-1,4-dihydropyrimidine-5-carbonyl)-L-glutamic acid], 0.15 µM corresponded to half-maximal inhibition against SARS-CoV-2 M^pro (IC50).

Molecule `O=C(CN1CCn2c(nnc2C(F)(F)F)C1)SC1=NC(c2ccc(C(F)(F)F)cc2)C(C(=O)N[C@@H](Cc2c[nH]cn2)C(=O)O)=C(C(F)(F)F)N1` (stereo partly drawn) [12d, (6-(Trifluoromethyl)-2-((2-(3-(trifluoromethyl)-5,6-dihydro-[1,2,4]triazolo[4,3-a]pyrazin-7(8H)-yl)acetyl)thio)-4-(4-(trifluoromethyl)phenyl)-1,4-dihydropyrimidine-5-carbonyl)histidine] came in with an IC50 against SARS-CoV-2 M^pro of 14.4 µM.

Molecule `O=C(CN1CCn2c(nnc2C(F)(F)F)C1)SC1=NC(c2ccc(C(F)(F)F)cc2)C(C(=O)N[C@@H](Cc2ccc(O)cc2)C(=O)O)=C(C(F)(F)F)N1` (stereo partly drawn) [12e, (6-(Trifluoromethyl)-2-((2-(3-(trifluoromethyl)-5,6-dihydro-[1,2,4]triazolo[4,3-a]-pyrazin-7(8H)-yl)acetyl)thio)-4-(4-(trifluoromethyl)phenyl)-1,4-dihydropyrimidine-5-carbonyl)-L-tyrosine] yielded an IC50 on SARS-CoV-2 M^pro of 0.73 ± 0.04 µM.

Molecule `NC1CCCN(CC(=O)SC2=NC(c3ccc(C(F)(F)F)cc3)C(C(=O)N[C@@H](Cc3ccc(O)cc3)C(=O)O)=C(C(F)(F)F)N2)C1` (stereo partly drawn) [12g, (2-((2-(3-Aminopiperidin-1-yl)acetyl)thio)-6-(trifluoromethyl)-4-(4-(trifluoromethyl)-phenyl)-1,4-dihydropyrimidine-5-carbonyl)-L-tyrosine] returned an IC50 on SARS-CoV-2 M^pro of 0.21 ± 0.01 µM.

For `CS(=O)(=O)n1cc2c(n1)CN(CC(=O)SC1=NC(c3ccc(C(F)(F)F)cc3)C(C(=O)N[C@@H](Cc3c[nH]cn3)C(=O)O)=C(C(F)(F)F)N1)C2` (stereo partly drawn) [12h, (2-((2-(2-(Methylsulfonyl)-2,6-dihydropyrrolo[3,4-c]pyrazol-5(4H)-yl)acetyl)thio)-6-(trifluoromethyl)-4-(4-(trifluoromethyl)phenyl)-1,4-dihydropyrimidine-5-carbonyl)histidine], at SARS-CoV-2 M^pro, it took 16.3 µM to reach half-maximal inhibition (IC50).

One may read the CC50 as the concentration giving 50% cytotoxicity. `CS(=O)(=O)n1cc2c(n1)CN(CC(=O)SC1=NC(c3ccc(C(F)(F)F)cc3)C(C(=O)N[C@@H](Cc3ccc(O)cc3)C(=O)O)=C(C(F)(F)F)N1)C2` (stereo partly drawn) [12i, (2-((2-(2-(Methylsulfonyl)-2,6-dihydropyrrolo[3,4-c]pyrazol-5(4H)-yl)acetyl)thio)-6-(trifluoromethyl)-4-(4-(trifluoromethyl)phenyl)-1,4-dihydropyrimidine-5-carbonyl)-L-tyrosine]: half-maximal cytotoxicity in data set [1] (CC50 at 48 h) was put at 243 µM.

In turn, `CS(=O)(=O)n1cc2c(n1)CN(CC(=O)SC1=NC(c3ccc([N+](=O)[O-])cc3)C(C(=O)N[C@@H](CCC(=O)O)C(=O)O)=C(C(F)(F)F)N1)C2` (stereo partly drawn) [12j, (2-((2-(2-(Methylsulfonyl)-2,6-dihydropyrrolo[3,4-c]pyrazol-5(4H)-yl)acetyl)thio)-4-(4-nitrophenyl)-6-(trifluoromethyl)-1,4-dihydropyrimidine-5-carbonyl)-L-glutamic acid] yielded a 50% cytotoxic concentration (CC50) at 48 h in data set [1] of 211 µM. Moreover, at SARS-CoV-2 M^pro, inhibition was half-maximal at 0.063 µM (IC50) and the “inhibition against M^pro” value is reported as “over 50%”.

In the case of `CS(=O)(=O)n1cc2c(n1)CN(CC(=O)SC1=NC(c3ccc([N+](=O)[O-])cc3)C(C(=O)Nc3ccc(S(=O)(=O)O)cc3)=C(C(F)(F)F)N1)C2` (stereo not drawn) [12k, 4-(2-((2-(2-(Methylsulfonyl)-2,6-dihydropyrrolo[3,4-c]pyrazol-5(4H)-yl)acetyl)thio)-4-(4-nitrophenyl)-6-(trifluoromethyl)-1,4-dihydropyrimidine-5-carboxamido)benzene-sulfonic acid], the midpoint of cytotoxicity in data set [1], the CC50 at 48 h, lay at 239 µM. The molecule further returned an IC50 against SARS-CoV-2 M^pro of 0.146 µM.

In data set [1], `COC(=O)c1ccc(C2N=C(SC(=O)CN3CCn4c(nnc4C(F)(F)F)C3)NC(C(F)(F)F)=C2C(=O)N[C@@H](Cc2c[nH]cn2)C(=O)O)cc1` (stereo partly drawn) [12l, (4-(4-(Methoxycarbonyl)phenyl)-6-(trifluoromethyl)-2-((2-(3-(trifluoromethyl)-5,6-dihydro-[1,2,4]triazolo[4,3-a]pyrazin-7(8H)-yl)acetyl)thio)-1,4-dihydropyrimidine-5-carbonyl)-L-histidine] returned a half-maximal cytotoxic concentration (CC50) at 48 h of 198 µM. Also, at SARS-CoV-2 M^pro, half-maximal inhibition (IC50) was put at 0.054 µM and the “inhibition against M^pro” value was “over 50%”.

`CC(C)(C)NC(=O)N[C@H](C(=O)N1C[C@H]2[C@@H]([C@H]1C(=O)NC(CC1CCC1)C(=O)C(N)=O)C2(C)C)C(C)(C)C` (stereo partly drawn) [boceprevir]: the IC50 in the data set with M^pro is 4.13 µM.

A word on the EC50: it is the concentration giving half of the maximal effect. For the molecule `Cn1cnc(Cn2c(=O)[nH]/c(=N\c3cc4cn(C)nc4cc3Cl)n(Cc3cc(F)c(F)cc3F)c2=O)n1` [ensitrelvir], the concentration for a half-maximal effect (EC50) in the data set with SARS-CoV-2 was 0.37 µM.

`CC(C)(C)[C@H](NC(=O)C(F)(F)F)C(=O)N1C[C@H]2[C@@H]([C@H]1C(=O)N[C@H](C#N)C[C@@H]1CCNC1=O)C2(C)C` [nirmatrelvir]: the 50% effective concentration (EC50) in the data set with SARS-CoV-2 (read-out: antiviral activity EC50) is 0.074 µM.
